For one series, the system named is BMΦ, BMDC and D1 cells. The experiment in a line: Lipid A-induced TNFα production in macrophages and dendritic cells (ELISA). It counts as cell-based, Mouse. The following applies: for direct inflammatory function (stimulating cytokines production): cells treated with compound alone, without lipid A. As for the experimental part:
BMΦ and DC were derived from bone marrow cells and divided in two separate cultures. For DC preparation bone marrow cells were cultured in complete IMDM supplemented with 10% supernatant of GM-CSF-transduced B16 tumor cells [R. Soiffer, T. Lynch, M. Mihm, K. Jung, C. Rhuda, J. C. Schmollinger, F. S. Hodi, L. Liebster, P. Lam, S. Mentzer, S. Singer, K. K. Tanabe, A. B. Cosimi, R. Duda, A. Sober, A. Bhan, J. Daley, D. Neuberg, G. Parry, J. Rokovich, L. Richards, J. Drayer, A. Berns, S. Clift, L. K. Cohen, R. C. Mulligan, G. Dranoff, Proc. Natl. Acad. Sci. U S A. 1998, 95(22), 13141-13146]. Fresh medium was added every 2 d. After 7-10 d of culture, cells were analyzed for CD11c expression and used in assays when 90% were CD11c positive. For BMΦ preparation bone marrow cells were cultured in complete IMDM supplemented with 10% supernatant of M-CSF-transduced NIH3T3 cells. Also in this case, fresh medium was added every 2 d. After 7-10 d of culture, cells were analyzed for Mac1 expression and used in assays when at least 90% were Mac1 positive. D1 cells were cultured in complete IMDM supplemented with 10% supernatant of GM-CSF-transduced B16 tumor cells.
D1 cells, BMDC and MΦ were plated in 48 well plates at a concentration of 200000 cells/well in 200µL of medium. One or two hours after plating they were treated with different amounts of compounds Ic and Id for 30 min and then stimulated with Lipid A from Escherichia coli (F583, Rd mutant Sigma, 0.5µM) for 18 h.
Given the pivotal role of early-activated DC and MΦ in directing inflammatory reactions, compounds Ia, Ic and Id were tested for their ability to antagonize the stimulatory activity of lipid A on bone marrow derived macrophages (BMΦ) and DC (BMDC) by interfering with their capacity to induce TNFα production. As source of DC, D1 cells, a long term growth factor (GM-CSF)-dependent DC line [C. Winzler et al. J. Exp. Med. 1997, 185, 317-327] were also used. BMΦ, BMDC and D1 cells were stimulated with lipid A (0.5 µM) after a pre-exposure to compounds Ia, Ic and Id and the amount of TNFα released in the supernatant was measured by ELISA.
For orientation: ELISA stands for enzyme-linked immunosorbent assay.

The next series is described as follows: Chemical stability. It counts as physicochemical. The following applies: N,O acetal group at C6 in Ia. The source says: Reagents and conditions: a) ADMA, CSA, DMF, 94%; b) C14H29Br, NaH, DMF, 74%; c) LiAlH4, AlCl3, CH2Cl2/Et2O, 86%; d) Dess- Martin periodinane, CH2Cl2; e) cyclopentylamine, NaBH3CN, AcOH, CH2Cl2, MeOH, 75% over two steps; f) TFA, CH2Cl2, 80%;g) CH3I, Na2CO3, DMF, 94%; h) O-methylhydroxylamine hydrochloride, pyridine, 65% from 6, i) NaBH3CN, glacial AcOH, 92%; l) TFA, CH2Cl2, 90%, m) DHF, PPTS, CH2Cl2, 65%; n) bromocyclopentane, DIPEA.

On to `CCCCCCCCCCCCCCO[C@H]1[C@@H](OC)O[C@H](CN(OC)C2CCCO2)[C@@H](O)[C@@H]1OCCCCCCCCCCCCCC` (stereo partly drawn) [Compound Ia, methyl 6-deoxy-6-[N-(1'-tetrahydrofuranyl)-N'-methoxyamino)-2,3-di-O-tetradecyl-α-D-glucopyranoside], for which the “direct inflammatory function (stimulating cytokines production)” value in the series with BMΦ, BMDC and D1 cells was “did not show any direct inflammatory function”. Also, the chemical stability result in “Chemical stability” is “chemically unstable”.
With `CCCCCCCCCCCCCCO[C@H]1[C@@H](OC)O[C@H](CN(OC)C2CCCC2)[C@@H](O)[C@@H]1OCCCCCCCCCCCCCC` [Ib, methyl 6-deoxy-6-[N-(cyclopentyl)-N'-methoxyamino)-2,3-di-O-tetradecyl-α-D-glucopyranoside], in “Chemical stability”, the chemical stability entry was “more stable than compound (Ia)”.
Regarding `CCCCCCCCCCCCCCO[C@H]1[C@@H](OC)O[C@H](CNC2CCCC2)[C@@H](O)[C@@H]1OCCCCCCCCCCCCCC` [Ic, methyl 6-deoxy-6-cyclopentylamino-2,3-di-O-tetradecyl-α-D-glucopyranoside], the “direct inflammatory function (stimulating cytokines production)” value in the series on BMΦ, BMDC and D1 cells is recorded as “did not show any direct inflammatory function”. Also, the “relative potency as inhibitor of lipid A” value with BMΦ, BMDC and D1 cells (comparison between compounds Ia, Ic and Id) is listed as “a better inhibitor than Ia”. The TNFα production result in the series on BMΦ, BMDC and D1 cells (stimulation with lipid A (0.5 µM) after pre-exposure to compound, TNFα released in the supernatant measured by ELISA, BMΦ, BMDC and D1 cells) is “interfered with lipid A's action in a dose-dependent manner”.

The values above are taken from patent publication EP1996603B1, “LIPID A ANTAGONISTS WITH ANTI-SEPTIC SHOCK, ANTI-INFLAMMATORY, ANTI-ISCHEMIA AND ANALGESIC ACTIVITY” (Università Degli Studi Di Milano - Bicocca, priority 2006, dated 2007).
